Structures are written as SMILES. Like-named read-outs stand apart in the source and are kept apart here.

Data on one compound can be found in US11111220B2, “Propanamine derivatives for treating pain and pain related conditions” (ESTEVE PHARMACEUTICALS, S.A., priority 2017, dated 2021).

Test [1] has as its target Human α2δ-1 Subunit of Cav2.2 Calcium Channel (Homo sapiens, UniProt P54289). Nature of the test: Binding assay to human α2δ-1 subunit of Cav2.2 calcium channel ([3H]-Gabapentin). As to conditions: human α2δ-1 enriched membranes, 15 nM [3H]-Gabapentin, read-out: Ki(nM) alpha2delta Hum. As to the method:
Binding Assay to Human α2δ-1 Subunit of Cav2.2 Calcium Channel.
Human α2δ-1 enriched membranes (2.5 μg) were incubated with 15 nM of radiolabeled [3H]-Gabapentin in assay buffer containing Hepes-KOH 10 mM, pH 7.4.
NSB (non specific binding) was measured by adding 10 μM pregabalin. The binding of the test compound was measured in five different concentrations. After 60 min incubation at 27° C., binding reaction was terminated by filtering through Multiscreen GF/C (Millipore) presoaked in 0.5% polyethyleneimine in Vacuum Manifold Station, followed by 3 washes with ice-cold filtration buffer containing 50 mM Tris-HCl, pH 7.4.
(§1) Filter plates were dried at 60° C. for 1 hour and 30 μl of scintillation cocktail were added to each well before radioactivity reading.
(§2) Readings were performed in a Trilux 1450 Microbeta radioactive counter (Perkin Elmer).

The target of test [2] is Human Norepinephrine Transporter (NET) (Homo sapiens, UniProt P23975). In words: Binding assay to human norepinephrine transporter (NET) ([3H]-Nisoxetin). As to conditions: Table 2 (dual compounds); human NET enriched membranes, 5 nM [3H]-Nisoxetin; read-out: Ki(nM) NET Hum. As to the method:
Binding Assay to Human Norepinephrine Transporter (NET).
Human norepinephrine transporter (NET) enriched membranes (5 μg) were incubated with 5 nM of radiolabeled [3H]-Nisoxetin in assay buffer containing 50 mM Tris-HCl, 120 mM NaCl, 5 mM KCl, pH 7.4.
NSB (non specific binding) was measured by adding 10 μM desipramine. The binding of the test compound was measured in five different concentrations. After 60 min incubation at 4° C., binding reaction was terminated by filtering through Multiscreen GF/C (Millipore) presoaked in 0.5% polyethyleneimine in Vacuum Manifold Station, followed by 3 washes with ice-cold filtration buffer containing 50 mM Tris-HCl, 0.9% NaCl, pH 7.4.
as §1, §2

Sequence of Human α2δ-1 Subunit of Cav2.2 Calcium Channel (P54289 25-1103): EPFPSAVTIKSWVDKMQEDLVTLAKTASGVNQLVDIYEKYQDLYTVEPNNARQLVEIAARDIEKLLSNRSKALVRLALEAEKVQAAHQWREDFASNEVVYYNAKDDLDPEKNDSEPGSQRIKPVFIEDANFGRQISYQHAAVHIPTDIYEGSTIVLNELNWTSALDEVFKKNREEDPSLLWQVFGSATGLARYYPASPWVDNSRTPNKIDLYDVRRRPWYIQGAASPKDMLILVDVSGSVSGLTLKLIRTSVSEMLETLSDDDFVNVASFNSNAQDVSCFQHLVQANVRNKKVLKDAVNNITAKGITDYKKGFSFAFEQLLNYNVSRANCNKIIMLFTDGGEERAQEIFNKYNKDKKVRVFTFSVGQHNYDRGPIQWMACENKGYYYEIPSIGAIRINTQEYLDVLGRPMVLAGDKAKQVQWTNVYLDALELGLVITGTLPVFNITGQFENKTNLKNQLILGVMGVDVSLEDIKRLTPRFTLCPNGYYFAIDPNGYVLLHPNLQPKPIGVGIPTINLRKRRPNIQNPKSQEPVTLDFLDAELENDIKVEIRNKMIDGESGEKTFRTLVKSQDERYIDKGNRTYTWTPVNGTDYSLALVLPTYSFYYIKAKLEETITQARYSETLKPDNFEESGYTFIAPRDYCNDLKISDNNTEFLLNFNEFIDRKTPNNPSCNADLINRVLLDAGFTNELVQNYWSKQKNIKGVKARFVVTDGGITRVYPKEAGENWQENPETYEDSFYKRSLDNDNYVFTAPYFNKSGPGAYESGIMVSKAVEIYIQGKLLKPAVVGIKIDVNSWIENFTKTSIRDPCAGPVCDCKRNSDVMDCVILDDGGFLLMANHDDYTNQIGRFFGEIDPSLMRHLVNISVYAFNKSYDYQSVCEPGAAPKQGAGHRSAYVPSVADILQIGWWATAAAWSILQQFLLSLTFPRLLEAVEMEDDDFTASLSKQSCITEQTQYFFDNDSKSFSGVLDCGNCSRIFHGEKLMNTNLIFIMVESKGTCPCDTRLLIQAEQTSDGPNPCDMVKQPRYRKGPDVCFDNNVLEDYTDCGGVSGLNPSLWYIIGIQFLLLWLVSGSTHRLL
Sequence of Human Norepinephrine Transporter (NET) (P23975 whole entry): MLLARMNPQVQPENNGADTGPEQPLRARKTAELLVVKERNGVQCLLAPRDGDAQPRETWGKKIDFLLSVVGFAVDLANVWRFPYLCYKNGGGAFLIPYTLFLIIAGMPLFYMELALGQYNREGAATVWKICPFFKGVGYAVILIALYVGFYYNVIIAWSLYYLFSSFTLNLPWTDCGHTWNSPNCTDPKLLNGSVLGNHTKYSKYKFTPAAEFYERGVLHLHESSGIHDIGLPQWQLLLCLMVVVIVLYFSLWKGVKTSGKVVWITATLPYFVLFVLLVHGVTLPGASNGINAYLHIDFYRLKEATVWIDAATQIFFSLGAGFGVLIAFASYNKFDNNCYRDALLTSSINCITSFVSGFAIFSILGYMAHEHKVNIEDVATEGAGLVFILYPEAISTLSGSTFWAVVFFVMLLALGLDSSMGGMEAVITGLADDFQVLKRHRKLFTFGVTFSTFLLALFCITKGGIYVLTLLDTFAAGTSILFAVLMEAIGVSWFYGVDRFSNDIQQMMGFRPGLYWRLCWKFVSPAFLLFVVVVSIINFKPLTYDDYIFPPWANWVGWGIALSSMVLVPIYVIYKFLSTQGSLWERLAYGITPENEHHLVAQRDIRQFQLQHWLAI

For `CNCCC(Oc1ccc(CNCc2ccccc2)c(F)c1)c1cccs1` (stereo not drawn) [Example 71, 3-(4-((Benzylamino)methyl)-3-fluorophenoxy)-N-methyl-3-(thiophen-2-yl)propan-1-amine], the Ki was at least 3000 nM in test [1] (Table 1), at least 3000 nM in test [1] (Table 2 (dual compounds)) and under 100 nM in test [2].
